Molecular target: T1, ITK (Homo sapiens, UniProt Q08881)
T1 sequence (Q08881 1-620): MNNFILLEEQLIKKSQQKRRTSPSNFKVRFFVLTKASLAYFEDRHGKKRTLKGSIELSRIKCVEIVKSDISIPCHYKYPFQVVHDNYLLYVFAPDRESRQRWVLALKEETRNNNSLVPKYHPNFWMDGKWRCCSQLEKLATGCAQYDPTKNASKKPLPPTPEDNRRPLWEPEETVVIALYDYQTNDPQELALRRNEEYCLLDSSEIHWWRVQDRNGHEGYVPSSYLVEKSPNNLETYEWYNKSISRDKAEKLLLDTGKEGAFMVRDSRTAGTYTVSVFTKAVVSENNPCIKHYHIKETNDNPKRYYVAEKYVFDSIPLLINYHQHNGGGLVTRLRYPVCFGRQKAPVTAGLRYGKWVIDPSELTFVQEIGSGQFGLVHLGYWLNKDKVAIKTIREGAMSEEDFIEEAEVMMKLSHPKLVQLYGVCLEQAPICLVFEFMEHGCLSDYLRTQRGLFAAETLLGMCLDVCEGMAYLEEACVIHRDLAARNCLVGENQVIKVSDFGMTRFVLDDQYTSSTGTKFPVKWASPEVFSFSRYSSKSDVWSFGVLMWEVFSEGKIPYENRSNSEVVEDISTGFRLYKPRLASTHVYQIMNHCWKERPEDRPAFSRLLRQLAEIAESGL
Assay type: cell-based
Details: Jurkat, read-out: % inhibition at 1 μM

For `C=CC(=O)N1CCC[C@@H](n2nc(-c3ccc(Oc4ccccc4)cc3)c3c(N)ncnc32)C1` [ibrutinib], the inhibition at 1 µM was > 90%.

— article PMC5491371 (Clinical cancer research : an official journal of the …, 2016)
